Experimental data from patent US20220017566A1, “TERPINOID DERIVATIVES AND USES THEREOF” (SICHUAN HAISCO PHARMACEUTICAL CO., LTD., priority 2018, published 2022).

Key:
[1] = tested on: IFNγ-induced NO production in Raw 264.7 cells; test: Nitric oxide assay: suppression of IFNγ-induced NO production (Griess nitrite, adjusted to live cell numbers); assay type: cell-based; details: Mus musculus, RAW264.7, 2 h pretreatment, IFNγ 10 ng/ml for 24 hours
Procedure: Raw 264.7 cells were seeded in 96-well plates at a density of 30, 000 cells per well in DMEM+10% FBS and incubated overnight. The next day, cell media was replaced by DMEM+2% FBS. Cells were pretreated with DMSO or test compounds (top dose 100 nM, 1:4 serial dilution, 10-point) for 2 hours and then treated with recombinant mouse IFNγ (R&D, Cat# 485-MI-100) at a final concentration of 10 ng/ml for 24 hours. Nitrite levels were measured in culture media as a surrogate for nitric oxide using the Griess Reagent System (Promega, Cat# G2930). Cell viability was determined using CellTiter Glo reagents (Promega, Cat#G7572). The nitrite levels were adjusted to live cell numbers and inhibition percentage was calculated. The inhibition percentage was then plotted against compound concentration, and IC50 values were calculated using four-parameter algorithm in Graphpad Prism.

CYP1A2 = biological target: T1, CYP1A2 (Homo sapiens, UniProt P05177); test: CYP450 enzyme inhibition in liver microsomes (cocktail probe incubation); assay type: in vitro ADME; details: species not given, 0.05-50 μM tested
T1 construct: studied in liver microsomes of CD-1 mouse, Sprague Dawley rat, Beagle dog, cynomolgus monkey, and human; from tissue; host or cells: liver microsomes
T1 sequence (P05177 1-516): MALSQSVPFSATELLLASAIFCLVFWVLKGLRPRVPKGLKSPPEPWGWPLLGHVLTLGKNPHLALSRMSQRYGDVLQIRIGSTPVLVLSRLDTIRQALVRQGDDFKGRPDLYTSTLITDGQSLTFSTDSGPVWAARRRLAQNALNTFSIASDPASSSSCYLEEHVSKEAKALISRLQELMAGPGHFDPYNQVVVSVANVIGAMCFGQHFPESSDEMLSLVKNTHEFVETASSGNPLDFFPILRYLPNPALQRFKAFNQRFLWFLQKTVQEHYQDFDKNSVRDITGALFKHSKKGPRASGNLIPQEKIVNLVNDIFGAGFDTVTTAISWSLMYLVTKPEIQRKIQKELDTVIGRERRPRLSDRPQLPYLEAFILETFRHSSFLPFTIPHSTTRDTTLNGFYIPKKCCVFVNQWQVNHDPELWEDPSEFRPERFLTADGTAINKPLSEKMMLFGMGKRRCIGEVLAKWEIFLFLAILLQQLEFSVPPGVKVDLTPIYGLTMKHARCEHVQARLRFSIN
Procedure: (§1) The inhibition potential of test compounds towards major drug metabolizing CYP450 enzymes was studied in liver microsomes of CD-1 mouse, Sprague Dawley rat, Beagle dog, cynomolgus monkey, and human. The inhibition of CYP1A2, CYP2C9, CYP2C19, CYP2D6, and CYP3A4 was assessed using CYP450 specific probe reactions in a cocktail incubation. Seven concentrations of test compounds (0.05, 0.15, 0.5, 1.5, 5, 15, and 50 μM) were evaluated. In addition, known inhibitors for each probe reaction were included as positive controls and incubated at a single concentration above their respective IC50.

CYP2C19 = biological target: T2, CYP2C19 (Homo sapiens, UniProt P33261); test: as above; assay type: in vitro ADME; details: species not given, 0.05-50 μM tested
T2 construct: studied in liver microsomes of CD-1 mouse, Sprague Dawley rat, Beagle dog, cynomolgus monkey, and human; from tissue; host or cells: liver microsomes
Procedure: as §1

CYP2C9 = biological target: T3, CYP2C9 (Homo sapiens, UniProt P11712); test: as above; assay type: in vitro ADME; details: species not given, 0.05-50 μM tested
T3 construct: studied in liver microsomes of CD-1 mouse, Sprague Dawley rat, Beagle dog, cynomolgus monkey, and human; from tissue; host or cells: liver microsomes
Procedure: as §1

CYP2D6 = biological target: T4, CYP2D6 (Homo sapiens, UniProt P10635); test: as above; assay type: in vitro ADME; details: species not given, 0.05-50 μM tested
T4 construct: studied in liver microsomes of CD-1 mouse, Sprague Dawley rat, Beagle dog, cynomolgus monkey, and human; from tissue; host or cells: liver microsomes
Procedure: as §1

CYP3A4 = biological target: T5, CYP3A4 (Homo sapiens, UniProt P08684); test: as above; assay type: in vitro ADME; details: species not given, 0.05-50 μM tested
T5 construct: studied in liver microsomes of CD-1 mouse, Sprague Dawley rat, Beagle dog, cynomolgus monkey, and human; from tissue; host or cells: liver microsomes
Procedure: as §1

T4 sequence (P10635 whole entry): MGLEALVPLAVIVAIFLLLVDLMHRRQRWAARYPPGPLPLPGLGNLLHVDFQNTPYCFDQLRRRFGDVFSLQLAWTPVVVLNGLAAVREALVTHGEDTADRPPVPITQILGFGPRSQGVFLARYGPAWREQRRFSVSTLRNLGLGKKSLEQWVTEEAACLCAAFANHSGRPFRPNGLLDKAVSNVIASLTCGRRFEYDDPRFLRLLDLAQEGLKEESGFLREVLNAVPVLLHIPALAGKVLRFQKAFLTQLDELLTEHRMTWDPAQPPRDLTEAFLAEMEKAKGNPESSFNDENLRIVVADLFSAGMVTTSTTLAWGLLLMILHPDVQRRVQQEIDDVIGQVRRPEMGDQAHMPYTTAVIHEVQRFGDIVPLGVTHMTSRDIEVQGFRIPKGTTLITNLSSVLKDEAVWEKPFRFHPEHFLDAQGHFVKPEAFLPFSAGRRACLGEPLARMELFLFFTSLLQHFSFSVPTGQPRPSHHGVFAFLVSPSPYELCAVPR
T2 sequence (P33261 whole entry): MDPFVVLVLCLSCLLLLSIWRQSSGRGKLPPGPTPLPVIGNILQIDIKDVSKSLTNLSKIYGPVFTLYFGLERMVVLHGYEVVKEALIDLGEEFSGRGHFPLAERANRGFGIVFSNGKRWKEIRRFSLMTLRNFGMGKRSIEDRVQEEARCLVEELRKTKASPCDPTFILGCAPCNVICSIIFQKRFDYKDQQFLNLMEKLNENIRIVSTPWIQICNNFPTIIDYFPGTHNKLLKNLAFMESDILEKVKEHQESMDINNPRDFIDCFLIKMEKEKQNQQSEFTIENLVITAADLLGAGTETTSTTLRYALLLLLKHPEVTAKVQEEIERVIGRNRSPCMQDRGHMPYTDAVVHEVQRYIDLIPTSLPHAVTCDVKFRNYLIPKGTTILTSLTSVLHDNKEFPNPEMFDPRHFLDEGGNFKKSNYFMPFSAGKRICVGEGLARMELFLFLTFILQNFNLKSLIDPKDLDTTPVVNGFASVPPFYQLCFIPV
T3 sequence (P11712 whole entry): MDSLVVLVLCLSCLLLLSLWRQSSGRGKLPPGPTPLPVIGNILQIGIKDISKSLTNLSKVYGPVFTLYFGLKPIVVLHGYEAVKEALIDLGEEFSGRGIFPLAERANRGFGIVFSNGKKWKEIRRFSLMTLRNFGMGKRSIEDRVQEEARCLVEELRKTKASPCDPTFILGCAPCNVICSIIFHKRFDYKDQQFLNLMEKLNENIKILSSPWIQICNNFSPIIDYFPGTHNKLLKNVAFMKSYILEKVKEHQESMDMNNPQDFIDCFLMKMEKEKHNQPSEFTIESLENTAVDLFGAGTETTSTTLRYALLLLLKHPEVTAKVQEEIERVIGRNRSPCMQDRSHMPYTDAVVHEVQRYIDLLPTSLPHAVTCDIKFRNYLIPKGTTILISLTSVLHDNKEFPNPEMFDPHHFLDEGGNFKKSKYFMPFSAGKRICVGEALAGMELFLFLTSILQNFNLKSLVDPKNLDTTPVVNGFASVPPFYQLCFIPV
T5 sequence (P08684 whole entry): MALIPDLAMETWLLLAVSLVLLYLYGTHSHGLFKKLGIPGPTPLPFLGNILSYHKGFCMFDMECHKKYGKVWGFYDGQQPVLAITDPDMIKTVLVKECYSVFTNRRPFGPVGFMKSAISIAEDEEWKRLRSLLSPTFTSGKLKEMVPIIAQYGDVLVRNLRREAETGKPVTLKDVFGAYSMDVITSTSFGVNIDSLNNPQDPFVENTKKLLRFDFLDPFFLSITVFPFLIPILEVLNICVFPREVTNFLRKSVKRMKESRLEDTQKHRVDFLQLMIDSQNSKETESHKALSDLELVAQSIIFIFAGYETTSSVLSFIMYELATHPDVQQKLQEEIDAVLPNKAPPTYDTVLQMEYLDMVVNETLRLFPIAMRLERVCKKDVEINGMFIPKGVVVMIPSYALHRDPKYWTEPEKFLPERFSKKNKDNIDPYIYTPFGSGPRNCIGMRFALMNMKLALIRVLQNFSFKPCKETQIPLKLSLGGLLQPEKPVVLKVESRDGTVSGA

SMILES	IC50 [1]	IC50 (CYP1A2)	IC50 (CYP2C19)	IC50 (CYP2C9)	IC50 (CYP2D6)	IC50 (CYP3A4)
CC1(C)C(=O)C(C#N)=C[C@]2(C)C3=CC(=O)[C@@H]4[C@@H]5C[C@@](C)(N6CCCC6)CC[C@]5(C)CC[C@@]4(C)[C@]3(C)CC[C@@H]12 [Example 21, (4aR,6aS,6bR,8aS,11S,12aS,12bR,14bS)-4,4,6a,6b,8a,11,14b-heptamethyl-3,13-dioxo-11-(pyrrolidin-1-yl)-3,4,4a,5,6,6a,6b,7,8,8a,9,10,11,12,12a,12b,13,14b-octadecahydropicene-2-carbonitrile]	10 to 100 nM					
CC1(C)C(=O)C(C#N)=C[C@]2(C)C3=CC(=O)[C@@H]4[C@@H]5C[C@@](C)(c6nnc(N)o6)CC[C@]5(C)CC[C@@]4(C)[C@]3(C)CC[C@@H]12 [Example 27, (4aR,6aS,6bR,8aS,11S,12aS,12bR,14bS)-11-(5-amino-1,3,4-oxadiazol-2-yl)-4,4,6a,6b,8a,11,14b-heptamethyl-3,13-dioxo-3,4,4a,5,6,6a,6b,7,8,8a,9,10,11,12,12a,12b,13,14b-octadecahydropicene-2-carbonitrile]	10 to 100 nM					
CC1(C)C(=O)C(C#N)=C[C@]2(C)C3=CC(=O)[C@@H]4[C@@H]5C[C@@](C)(c6nc(-c7ccccc7)n[nH]6)CC[C@]5(C)CC[C@@]4(C)[C@]3(C)CC[C@@H]12 [Example 8, (4aR,6aS,6bR,8aS,11S,12aS,12bR,14bS)-4,4,6a,6b,8a,11,14b-heptamethyl-3,13-dioxo-11-(3-phenyl-1H-1,2,4-triazol-5-yl)-3,4,4a,5,6,6a,6b,7,8,8a,9,10,11,12,12a,12b,13,14b-octadecahydropicene-2carbonitrile]	10 to 100 nM					
C[C@H](O)c1nnc([C@@]2(C)CC[C@]3(C)CC[C@]4(C)[C@H](C(=O)C=C5[C@@]6(C)C=C(C#N)C(=O)C(C)(C)[C@@H]6CC[C@]54C)[C@@H]3C2)o1 [Example 23, (4aR,6aS,6bR,8aS,11S,12aS,12bR,14bS)-11-(5-((S)-1-hydroxyethyl)-1,3,4-oxadiazol-2-yl)-4,4,6a,6b,8a,11,14b-heptamethyl-3,13-dioxo-3,4,4a,5,6,6a,6b,7,8,8a,9,10,11,12,12a,12b,13,14b-octadecahydropicene-2-carbonitrile]	10 to 100 nM	> 50000 nM	11800 nM	1500 nM	15800 nM	900 nM
CC1(C)C(=O)C(C#N)=C[C@]2(C)C3=CC(=O)[C@@H]4[C@@H]5C[C@@](C)(N6CCOCC6)CC[C@]5(C)CC[C@@]4(C)[C@]3(C)CC[C@@H]12 [Example 11, (4aR,6aS,6bR,8aS,11S,12aS,12bR,14bS)-4,4,6a,6b,8a,11,14b-heptamethyl-11-morpholino-3,13-dioxo-3,4,4a,5,6,6a,6b,7,8,8a,9,10,11,12,12a,12b,13,14b-octadecahydropicene-2-carbonitrile]	< 10 nM	> 50000 nM	14600 nM	2200 nM	> 50000 nM	500 nM
CNC(=O)c1nnc([C@@]2(C)CC[C@]3(C)CC[C@]4(C)[C@H](C(=O)C=C5[C@@]6(C)C=C(C#N)C(=O)C(C)(C)[C@@H]6CC[C@]54C)[C@@H]3C2)o1 [Example 24, 5-((2S,4aS,6aR,6bS,8aR,12aS,14aR,14bS)-11-cyano-2,4a,6a,6b,9,9,12a-heptamethyl-10,14-dioxo-1,2,3,4,4a,5,6,6a,6b,7,8,8a,9,10,12a,14,14a,14b-octadecahydropicen-2-yl)-N-methyl-1,3,4-oxadiazole-2-carboxamide]	< 10 nM	> 50000 nM	2800 nM	600 nM	4000 nM	500 nM
CC1(C)C(=O)C(C#N)=C[C@]2(C)C3=CC(=O)[C@@H]4[C@@H]5C[C@@](C)(n6cnnc6)CC[C@]5(C)CC[C@@]4(C)[C@]3(C)CC[C@@H]12 [Example 17, (4aR,6aS,6bR,8aS,11S,12aS,12bR,14bS)-4,4,6a,6b,8a,11,14b-heptamethyl-3,13 dioxo-11-(4H-1,2,4-triazol-4-yl)-3,4,4a,5,6,6a,6b,7,8,8a,9,10,11,12,12a,12b,13,14b-octadecahydropicene-2-carbonitrile]		> 50000 nM	16900 nM	2200 nM	35400 nM	100 nM

The remaining lines, values ahead:

IC50 [1]	IC50 (CYP1A2)	IC50 (CYP2C19)	IC50 (CYP2C9)	IC50 (CYP2D6)	IC50 (CYP3A4)	SMILES
< 10 nM	> 50000 nM	9400 nM	2000 nM	10100 nM	800 nM	Cc1cnc([C@@]2(C)CC[C@]3(C)CC[C@]4(C)[C@H](C(=O)C=C5[C@@]6(C)C=C(C#N)C(=O)C(C)(C)[C@@H]6CC[C@]54C)[C@@H]3C2)o1 [Example 7, (4aR,6aS,6bR,8aS,11S,12aS,12bR,14bS)-4,4,6a,6b,8a,11,14b-heptamethyl-11-(5-methyloxazol-2-yl)-3,13-dioxo-3,4,4a,5,6,6a,6b,7,8,8a,9,10,11,12,12a,12b,13,14b-octadecahydropicene-2-carbonitrile]
< 10 nM	> 50000 nM	5600 nM	2100 nM	6900 nM	500 nM	CC1(C)C(=O)C(C#N)=C[C@]2(C)C3=CC(=O)[C@@H]4[C@@H]5C[C@@](C)(c6ncco6)CC[C@]5(C)CC[C@@]4(C)[C@]3(C)CC[C@@H]12 [Example 6, (4aR,6aS,6bR,8aS,11S,12aS,12bR,14bS)-4,4,6a,6b,8a,11,14b-heptamethyl-11-(oxazol-2-yl)-3,13-dioxo-3,4,4a,5,6,6a,6b,7,8,8a,9,10,11,12,12a,12b,13,14b-octadecahydropicene-2-carbonitrile]
< 10 nM	> 50000 nM	27500 nM	1800 nM	> 50000 nM	1300 nM	CC1(C)C(=O)C(C#N)=C[C@]2(C)C3=CC(=O)[C@@H]4[C@@H]5C[C@@](C)(c6nnc(C(F)(F)F)o6)CC[C@]5(C)CC[C@@]4(C)[C@]3(C)CC[C@@H]12 [Example 10, (4aR,6aS,6bR,8aS,11S,12aS,12bR,14bS)-4,4,6a,6b,8a,11,14b-heptamethyl-3,13-dioxo-11-(5-(trifluoromethyl)-1,3,4-oxadiazol-2-yl)-3,4,4a,5,6,6a,6b,7,8,8a,9,10,11,12,12a,12b,13,14b-octadecahydropicene-2-carbonitrile]
< 10 nM	> 50000 nM	7400 nM	2000 nM	14700 nM	1500 nM	CC1(C)C(=O)C(C#N)=C[C@]2(C)C3=CC(=O)[C@@H]4[C@@H]5C[C@@](C)(c6nnc(C7CC7)o6)CC[C@]5(C)CC[C@@]4(C)[C@]3(C)CC[C@@H]12 [Example 16, (4aR,6aS,6bR,8aS,11S,12aS,12bR,14bS)-11-(5-cyclopropyl-1,3,4-oxadiazol-2-yl)-4,4,6a,6b,8a,11,14b-heptamethyl-3,13-dioxo-3,4,4a,5,6,6a,6b,7,8,8a,9,10,11,12,12a,12b,13,14b-octadecahydropicene-2-carbonitrile]
